# Laboratory results taken from US20140017216A1, “PESTICIDAL MIXTURES” (BAYER CROPSCIENCE LP, priority 2011, published 2014).
# Tested on: southern armyworm (Spodoptera eridania)
# Experiment: Test B.7: control of southern armyworm, leaf-dip on lima bean leaves, larval mortality
# Format: in vivo
# Conditions: single active, neonate larvae, 4 days
# Description: For evaluating control of southern armyworm (Spodoptera eridania) the test unit consists of Petri dishes containing eight-day-old Henderson bush lima bean leaves and 10 neonate S. eridania larvae.
# The compounds or mixtures are formulated using a solution containing […] water and 0.05 vol % of a surfactant (Kinetic). Leaves are dipped into different concentrations of formulated compounds or mixtures and allowed to dry. Four replications are performed.
# For experimental mixtures in these tests identical volumes of both mixing partners at the desired concentrations respectively, are mixed together.
# After application, Petri dishes are incubated in the dark at 26±1° C., for 4 days. Larval mortality is visually assessed.
# Metaflumizone at rates of 2.5 and 5.0 kg ai/ha and Streptomyces galbus strain M1064 at rates of 0.69. 1.39, and 2.79 kg ai/ha were tested singly and in combination for control of southern armyworm, Spodoptera eridania in the laboratory.
smiles,measurement,setting,value
"N#Cc1ccc(CC(=NNC(=O)Nc2ccc(OC(F)(F)F)cc2)c2cccc(C(F)(F)F)c2)cc1 (mixture of isomers) [Metaflumizone, metaflumizone]",Observed Mortality,application rate 2.5 kg ai/ha,15.0%
same,Observed Mortality,application rate 5.0 kg ai/ha,47.5%
